ChEMBL document CHEMBL3045406, “Enantioselective Relieving Activity of α-Methylbenzylphenylureas toward Bensulfuron-methyl Injury to Rice (Oryza sativa)” (Biosci Biotechnol Biochem, 1999)

Key:
[1] = system: Oryza sativa; experiment: Effect on Oryza sativa (rice) assessed as growth rate at 0.1 uM relative to control; type: organism-based; conditions: in vivo
[2] = system: Oryza sativa; experiment: Safener indices, ratio of compound effect of Oryza sativa (rice) growth rate to relieving activity against bensulfuron-methyl induced injury to Oryza sativa growth rate at 10 uM
[3] = system: Oryza sativa; experiment: Safener indices, ratio of compound effect of Oryza sativa (rice) growth rate to relieving activity against bensulfuron-methyl induced injury to Oryza sativa growth rate at 0.1 uM
[4] = system: Oryza sativa; experiment: Safener indices, ratio of compound effect of Oryza sativa (rice) growth rate to relieving activity against bensulfuron-methyl induced injury to Oryza sativa growth rate at 1 uM
[5] = system: Oryza sativa; experiment: Effect on Oryza sativa (rice) assessed as growth rate at 10 uM relative to control; type: organism-based; conditions: in vivo
[6] = system: Oryza sativa; experiment: Relieving activity against bensulfuron-methyl induced injury to Oryza sativa (rice) assessed as growth rate at 0.1 uM (Rbv = 46 to 53%); type: functional
[7] = Hydrophobicity, log K of the compound; type: physicochemical; conditions: octanol/water
[8] = system: Oryza sativa; experiment: Relieving activity against bensulfuron-methyl induced injury to Oryza sativa (rice) assessed as growth rate at 1 uM (Rbv = 46 to 53%); type: functional
[9] = system: Oryza sativa; experiment: Effect on Oryza sativa (rice) assessed as growth rate at 1 uM relative to control; type: organism-based; conditions: in vivo
[10] = system: Oryza sativa; experiment: Relieving activity against bensulfuron-methyl induced injury to Oryza sativa (rice) assessed as growth rate at 10 uM (Rbv = 46 to 53%); type: functional

Activity [1]	Activity [5]	log K [7]	Activity [9]	Compound	Ratio [2]	Ratio [3]	Ratio [4]	Activity [6]	Activity [8]	Activity [10]
100%	86%	0.489	94%	CCc1cccc(NC(=O)N[C@@H](C)c2ccccc2)c1	68	15	48	58%	72%	82%
100%	47%	0.374	98%	Cc1cccc(NC(=O)N[C@H](C)c2ccccc2)c1	29	10	22	55%	60%	45%
99%	100%	0.374	100%	Cc1cccc(NC(=O)N[C@@H](C)c2ccccc2)c1	79	27	58	63%	79%	89%
100%	100%	0.367	99%	Cc1ccc(NC(=O)N[C@@H](C)c2ccccc2)cc1	82	45	73	72%	86%	91%
97%	36%	0.489	71%	CCc1cccc(NC(=O)N[C@H](C)c2ccccc2)c1	29	8	36	54%	59%	42%

Further lines, the molecule ahead of its results:

Compound	Activity [1]	Activity [5]	log K [7]	Activity [9]	Ratio [2]	Ratio [3]	Ratio [4]	Activity [6]	Activity [8]	Activity [10]
CCc1ccc(NC(=O)N[C@H](C)c2ccccc2)cc1	95%	44%	0.487	47%	32	15	24	56%	43%	47%
CCc1ccc(NC(=O)N[C@@H](C)c2ccccc2)cc1	99%	91%	0.487	95%	72	7	62	74%	80%	84%
CC(C)c1ccccc1NC(=O)N[C@H](C)c1ccccc1	103%	17%	0.487	101%	24	-9	3	43%	48%	30%
Cc1ccccc1NC(=O)N[C@@H](C)c1ccccc1	100%	99%	0.337	99%	58	5	21	52%	60%	79%
Cc1ccc(NC(=O)N[C@H](C)c2ccccc2)cc1	100%	64%	0.367	98%	46	9	41	54%	70%	63%
CCc1ccccc1NC(=O)N[C@H](C)c1ccccc1	101%	92%	0.422	100%	47	1	8	52%	55%	72%
CCc1ccccc1NC(=O)N[C@@H](C)c1ccccc1	100%	95%	0.422	100%	44	1	12	51%	57%	71%
